Experiments:
[1] = target: T1, KRAS in AGS cells (KRAS G12D mutant cell line) or LS180 cells (KRAS G12D mutant cell line) (Homo sapiens, UniProt P01116, G12D); assay: KRAS Western Blot (WB) assay; assay type: cell-based; conditions: KRAS degradation, 24 hours incubation, normalized to β-actin
T1 construct: CRL-187 (LS180) (so in the source); host or cells: AGS or LS180 cells
Method: Day 1. Seeded AGS cells (KRAS G12D mutant cell line, ATCC, CRL-1739) or LS180 cells (KRAS G12D mutant cell line, ATCC, CRL-187) into 6-well plates (cell density: 3×10^5 cells/well/2 ml medium) in Ham's F-12 medium (Invitrogen, 11765-054) or Eagle's Minimum Essential Medium (ATCC, 30-2003) and incubated overnight at 37° C. and 5% CO2.
Day 2. Aspirated 1 ml medium from each well and added 1 ml medium containing DMSO or test compound into the well to achieve the desired final concentration. Mixed well by gentle shaking and incubated for 24 hours.
Day 3. Aspirated media from plates; washed cells with 2 ml 4° C. PBS (Solarbio, P1020-500) and aspirated the PBS. Then added 100 μl 4° C. […] lysis buffer (Boston BioProducts BP-115D) with protease and phosphatase inhibitors at vendor recommended concentrations (Roche 05892791001 and 04906837001) into each well to lyse the cells, and incubated for 20 minutes at 4° C. Cell lysate was collected into 1.5 ml Eppendorf tube, and the lysate was sonicated at 4° C. for 2 minutes (5 second pulse at 30% power with 10 second intermissions). The lysate was centrifuged at 12,000 rpm for 15 minutes at 4° C. The supernatant was transferred to a fresh Eppendorf tube, and protein concentration was quantified using a BCA kit (Solarbio, PC0020-500). Mixed the cell lysate and 5×NuPAGE SDS Loading Buffer (Beyotime, P0015L), and heated at 95° C. for 10 minutes in a heat block. Prepared samples were stored at −80° C. until SDS-PAGE procedure.
Day 4. Loaded 15 μg protein from each sample onto NuPAGE® Novex 4-12% Bis-Tris Midi Gel, 26 W (Invitrogen, WG1403BOX) and ran the gel at 120V for 1.5 hours in 1×NuPAGE® MOPS SDS Running Buffer (Novex, NP0001). Electrotransferred to nitrocellulose membrane using dry transfer method (iBlot 2 Transfer Stacks, nitrocellulose, IB23001) with a program consisting of 20V for 1 minute, 23V for 4 minutes and 25V for 2 minutes. Blocked the membrane with 5% BSA (Solarbio, A8020) in 1×TBST (CST, 9997S) for 1 hour at room temperature. Incubated with KRAS antibody (LSBio, LS-C175665, clone 2C1) at 1:1000 dilution and β-actin antibody at 1:1000 dilution (CST, 4970S) in TBST containing 1% BSA (Solarbio, A8020) at 4° C. overnight.
Day 5. Washed nitrocellulose membrane three times with 1×TBST for 10 minutes each at room temperature. Incubated with fluorescently labeled secondary antibodies at 1:5000 dilution in TBST containing 1% BSA (anti-rabbit IgG, Licor, 926-32211; anti-mouse IgG, LI-COR, 926-68070) for 1 hour at room temperature. Washed membrane three times with TBST, 10 minutes each. Scanned the membrane on LiCOR scanner for fluorescent signal(s) and quantified KRAS bands and β-actin bands for normalization.
The data are reported in Table 2, wherein “A” indicates a DC50 of less than 1 μM; “B” indicates a DC50 of greater than or equal to 1 μM and less than 10 μM; and “C” indicates a DC50 of greater than or equal to 10 μM.

[2] = target: T2, KRAS (G12D)-HiBit in AsPc-1-KRAS (G12D)-HiBit-KI cell (Homo sapiens, UniProt P01116, G12D); assay: G12D HiBit assay; assay type: cell-based; conditions: 24 hours compound treatment, absolute DC50, read-out: Average PHA DC50
T2 construct: host or cells: AsPc-1-KRAS (G12D)-HiBit-KI cells (knock-in line)
Method in brief: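 Degradation of endogenous HiBiT-tagged KRAS G12D in AsPc-1 knock-in cells read after 24 h compound exposure (0.015-300 nM, 3-fold steps) by Nano-Glo HiBiT lytic luminescence. Signal normalised to DMSO-only cells; absolute DC50 derived by curve fitting.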

T2 sequence (P01116 1-188 isoform P01116-2 G12D): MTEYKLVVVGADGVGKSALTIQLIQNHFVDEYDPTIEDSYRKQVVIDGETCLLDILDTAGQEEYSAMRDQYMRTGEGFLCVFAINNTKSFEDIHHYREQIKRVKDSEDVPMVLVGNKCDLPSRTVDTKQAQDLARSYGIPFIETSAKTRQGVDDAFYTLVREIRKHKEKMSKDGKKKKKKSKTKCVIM
T1 sequence (P01116 1-188 isoform P01116-2 G12D): as above

Compound | DC50 [1] | DC50 [2] [nM]
C#Cc1c(F)ccc2cc(O)cc(-c3ncc4c(N5CC6CCC(C5)N6)nc(OCC56CCCN5[C@H](COC(=O)NCCCCCCCCCNc5cccc7c5C(=O)N(C5CCC(=O)NC5=O)C7=O)CC6)nc4c3F)c12 (mixture of isomers) [Compound 023, (3RS,8RS)-[8-[[4-(3,8-Diazabicyclo[3.2.1]octan-3-yl)-7-(8-ethynyl-7-fluoro-3-hydroxy-1-naphthyl)-8-fluoro-pyrido[4,3-d]pyrimidin-2-yl]oxymethyl]-1,2,3,5,6,7-hexahydropyrrolizin-3-yl]methyl N-[9-[[2-(2,6-dioxo-3-piperidyl)-1,3-dioxo-isoindolin-4-yl]amino]nonyl]carbamate] | A (DC50 less than 1 μM) | –
C#Cc1c(F)ccc2cc(O)cc(-c3ncc4c(N5CC6CCC(C5)N6)nc(OC[C@@]56CCCN5[C@H](COC(=O)NCCCc5ccc7c(c5)n(C)c(=O)n7C5CCC(=O)NC5=O)CC6)nc4c3F)c12 (stereo partly drawn) [Compound 001, [(3S,8S)-8-[[4-(3,8-diazabicyclo[3.2.1]octan-3-yl)-7-(8-ethynyl-7-fluoro-3-hydroxy-1-naphthyl)-8-fluoro-pyrido[4,3-d]pyrimidin-2-yl]oxymethyl]-1,2,3,5,6,7-hexahydropyrrolizin-3-yl]methyl N-[3-[1-(2,6-dioxo-3-piperidyl)-3-methyl-2-oxo-benzimidazol-5-yl]propyl]carbamate] | C (DC50 greater than or equal to 10 μM) | –
C#Cc1c(F)ccc2cc(O)cc(-c3ncc4c(N5CC6CCC(C5)N6)nc(OC[C@@]56CCCN5[C@H](COC(=O)NCCc5ccc7c(c5)n(C)c(=O)n7C5CCC(=O)NC5=O)CC6)nc4c3F)c12 (stereo partly drawn) [Compound 002, [(3S,8S)-8-[[4-(3,8-diazabicyclo[3.2.1]octan-3-yl)-7-(8-ethynyl-7-fluoro-3-hydroxy-1-naphthyl)-8-fluoro-pyrido[4,3-d]pyrimidin-2-yl]oxymethyl]-1,2,3,5,6,7-hexahydropyrrolizin-3-yl]methyl N-[2-[1-(2,6-dioxo-3-piperidyl)-3-methyl-2-oxo-benzimidazol-5-yl]ethyl]carbamate] | C (DC50 greater than or equal to 10 μM) | –
C#Cc1c(F)ccc2cc(O)cc(-c3ncc4c(N5CC6CCC(C5)N6)nc(OC[C@@]56CCCN5[C@H](COC(=O)NCCCc5cccc7c5n(C)c(=O)n7C5CCC(=O)NC5=O)CC6)nc4c3F)c12 (stereo partly drawn) [Compound 003, [(3S,8S)-8-[[4-(3,8-diazabicyclo[3.2.1]octan-3-yl)-7-(8-ethynyl-7-fluoro-3-hydroxy-1-naphthyl)-8-fluoro-pyrido[4,3-d]pyrimidin-2-yl]oxymethyl]-1,2,3,5,6,7-hexahydropyrrolizin-3-yl]methylN-[3-[1-(2,6-dioxo-3-piperidyl)-3-methyl-2-oxo-benzimidazol-4-yl]propyl]carbamate] | C (DC50 greater than or equal to 10 μM) | –
C#Cc1c(F)ccc2cc(O)cc(-c3ncc4c(N5CC6CCC(C5)N6)nc(OC[C@@]56CCCN5[C@H](COC(=O)NCCc5cccc7c5n(C)c(=O)n7C5CCC(=O)NC5=O)CC6)nc4c3F)c12 (stereo partly drawn) [Compound 004, [(3S,8S)-8-[[4-(3,8-diazabicyclo[3.2.1]octan-3-yl)-7-(8-ethynyl-7-fluoro-3-hydroxy-1-naphthyl)-8-fluoro-pyrido[4,3-d]pyrimidin-2-yl]oxymethyl]-1,2,3,5,6,7-hexahydropyrrolizin-3-yl]methyl N-[2-[1-(2,6-dioxo-3-piperidyl)-3-methyl-2-oxo-benzimidazol-4-yl]ethyl]carbamate] | C (DC50 greater than or equal to 10 μM) | –
C#Cc1c(F)ccc2cc(O)cc(-c3ncc4c(N5CC6CCC(C5)N6)nc(OC[C@@]56CCCN5[C@H](COC(=O)NCCCCCc5ccc7c(c5)n(C)c(=O)n7C5CCC(=O)NC5=O)CC6)nc4c3F)c12 (stereo partly drawn) [Compound 005, [(3S,8S)-8-[[4-(3,8-diazabicyclo[3.2.1]octan-3-yl)-7-(8-ethynyl-7-fluoro-3-hydroxy-1-napht-hyl)-8-fluoro-pyrido[4,3-d]pyrimidin-2-yl]oxymethyl]-1,2,3,5,6,7-hexahydropyrrolizin-3-yl]methyl N-[5-[1-(2,6-dioxo-3-piperidyl)-3-methyl-2-oxo-benzimidazol-5-yl]pentyl]carbamate] | C (DC50 greater than or equal to 10 μM) | –
C#Cc1c(F)ccc2cccc(-c3ncc4c(N5CC6CCC(C5)N6)nc(OC[C@@]56CCCN5[C@H](COC(=O)NCCCC(=O)N5CCN(c7ccc(N8CCC(=O)NC8=O)cc7)CC5)CC6)nc4c3F)c12 [Compound 146, [(3S,8S)-8-[[4-(3,8-diazabicyclo[3.2.1]octan-3-yl)-7-(8-ethynyl-7-fluoro-1-naphthyl)-8-fluoro-pyrido[4,3-d]pyrimidin-2-yl]oxymethyl]-1,2,3,5,6,7-hexahydropyrrolizin-3-yl]methylN-[4-[4-[4-(2,4-dioxohexahydropyrimidin-1-yl)phenyl]piperazin-1-yl]-4-oxo-butyl]carbamate] | – | ≥ 300
C#Cc1c(F)ccc2cccc(-c3ncc4c(N5CC6CCC(C5)N6)nc(OC[C@@]56CCCN5[C@H](COC(=O)NCCCCC(=O)N5CCN(c7ccc(N8CCC(=O)NC8=O)cc7)CC5)CC6)nc4c3F)c12 [Compound 147, [(3S,8S)-8-[[4-(3,8-Diazabicyclo[3.2.1]octan-3-yl)-7-(8-ethynyl-7-fluoro-1-naphthyl)-8-fluoro-pyrido[4,3-d]pyrimidin-2-yl]oxymethyl]-1,2,3,5,6,7-hexahydropyrrolizin-3-yl]methyl N-[5-[4-[4-(2,4-dioxohexahydropyrimidin-1-yl)phenyl]piperazin-1-yl]-5-oxo-pentyl]carbamate] | – | ≥ 300
C#Cc1c(F)ccc2cccc(-c3ncc4c(N5CC6CCC(C5)N6)nc(OC[C@@]56CCCN5[C@H](COC(=O)NCCCCCC(=O)N5CCN(c7ccc(N8CCC(=O)NC8=O)cc7)CC5)CC6)nc4c3F)c12 [Compound 148, ((3S,7aS)-7a-(((4-(3,8-Diazabicyclo[3.2.1]octan-3-yl)-7-(8-ethynyl-7-fluoronaphthalen-1-yl)-8-fluoropyrido[4,3-d]pyrimidin-2-yl)oxy)methyl)hexahydro-1H-pyrrolizin-3-yl)methyl(6-(4-(4-(2,4-dioxotetrahydropyrimidin-1(2H)-yl)phenyl)piperazin-1-yl)-6-oxohexyl)carbamate] | – | ≥ 300
C#Cc1c(F)ccc2cccc(-c3ncc4c(N5CC6CCC(C5)N6)nc(OC[C@@]56CCCN5[C@H](COC(=O)NCCCCCCC(=O)N5CCN(c7ccc(N8CCC(=O)NC8=O)cc7)CC5)CC6)nc4c3F)c12 [Compound 149, [(3S,8S)-8-[[4-(3,8-Diazabicyclo[3.2.1]octan-3-yl)-7-(8-ethynyl-7-fluoro-1-naphthyl)-8-fluoro-pyrido[4,3-d]pyrimidin-2-yl]oxymethyl]-1,2,3,5,6,7-hexahydropyrrolizin-3-yl]methyl N-[7-[4-[4-(2,4-dioxohexahydropyrimidin-1-yl)phenyl]piperazin-1-yl]-7-oxo-heptyl]carbamate] | – | ≥ 300

Reference: patent publication US12404285B2, “KRAS G12D proteolysis targeting chimeras” (PAQ Therapeutics Inc., priority 2022, dated 2025)
